Source: PMC7251097, “Aspartate/asparagine-β-hydroxylase: a high-throughput mass spectrometric assay for discovery of small molecule inhibitors” (Scientific Reports, 2020)
Counter-ions that a name gives are not always drawn. Like-named read-outs stand apart in the source and are kept apart here. Starred links: 1 amine or outer side, 2 acyl side, 3 side chain; linkers in the order of their positions; H or OH if unused. Non-standard residues stand in square brackets, D forms with d. Residues, ends and D or L forms follow the SMILES beside them. X1 = NCCCC[C@H](N)CN([C@@H](CCCCN)C(=O)[*:2])[*:1]; Tle = CC(C)(C)[C@H](N)C(=O)O

Target: T1, His6-AspH315–758 (human aspartate/asparagine-β-hydroxylase, AspH) (Homo sapiens, UniProt Q12797)
T1 construct: N-Terminally His6-tagged human AspH315–758 (His6-AspH315–758) was produced in E. coli BL21 (DE3) cells; made in house; host or cells: E. coli BL21 (DE3), pET-28a(+) vector
T1 sequence (Q12797 315-758): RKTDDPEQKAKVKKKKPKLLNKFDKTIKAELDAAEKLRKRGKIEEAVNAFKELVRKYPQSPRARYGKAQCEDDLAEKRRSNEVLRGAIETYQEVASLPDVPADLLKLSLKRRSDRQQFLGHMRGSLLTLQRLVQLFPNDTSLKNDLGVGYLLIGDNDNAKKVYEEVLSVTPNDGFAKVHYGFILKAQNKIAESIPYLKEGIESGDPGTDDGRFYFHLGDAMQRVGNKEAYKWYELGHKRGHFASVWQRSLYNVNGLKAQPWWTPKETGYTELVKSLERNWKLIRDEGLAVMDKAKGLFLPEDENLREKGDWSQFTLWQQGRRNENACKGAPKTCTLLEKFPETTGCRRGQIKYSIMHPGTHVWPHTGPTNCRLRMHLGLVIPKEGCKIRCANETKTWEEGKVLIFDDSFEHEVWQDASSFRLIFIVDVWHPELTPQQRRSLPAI
Experiment: SPE-MS AspH inhibition assay (LOPAC screen at fixed 20 μM and IC50 dose-response), hydroxylation of cyclic peptide hFX-CP101–119
Format: biochemical
Conditions: for Plate 5 (% inhibition) / Plate 5 (% conversion): plate 5 (Pfitzer), test compounds at fixed 20 μM; for Plate 5 (% conversion): mean conversion DMSO 32.88

[1] = LOPAC compound at 20uM, plate 3, conversion of substrate peptide
[2] = LOPAC compound at fixed 20 uM, plate 1, normalised to DMSO and 2,4-PDCA controls
[3] = LOPAC compound at fixed 20 uM, substrate conversion, plate 1
[4] = LOPAC Plate 4, compound at 20 uM, substrate conversion
[5] = LOPAC Plate 4, compound at 20 uM

COc1ccc2c(c1OC)C(=O)O[C@@H]2[C@H]1c2c(cc3c(c2OC)OCO3)CCN1C.Cl [Noscapine hydrchloride]
Plate 3 (% conversion) [1]: 38.14%

CC(CCc1ccccc1)NC(C)C(O)c1ccc(O)cc1 (stereo not shown) [Nylidrin hydrochloride]
Plate 3 (% conversion) [1]: 36.07%

Nc1nc(OCc2ccccc2)c2nc[nH]c2n1 [O6-benzylguanine]
Plate 1 (% inhibition) [2]: -1.55%
Plate 1 (% conversion) [3]: 36.39%

N[C@@H](COP(=O)(O)O)C(=O)O [O-Phospho-L-serine]
Plate 3 (% conversion) [1]: 35.30%

CCCCCCCCCCCCCCCCCCc1ccc(C(=O)/C=C/C(=O)O)cc1 [OBAA]
Plate 1 (% inhibition) [2]: -7.39%
Plate 1 (% conversion) [3]: 38.35%

CCCCCc1ccc(/C=C/C(=O)Nc2cc(Cl)ccc2C(=O)O)cc1 [ONO-RS-082]
Plate 3 (% conversion) [1]: 29.75%

CCCN1CCC[C@@H](c2cccc(S(C)(=O)=O)c2)C1 [OSU6162]
Plate 5 (% inhibition): 28.06%
Plate 5 (% conversion): 26.77%

CC1COc2c(N3CCN(C)CC3)c(F)cc3c(=O)c(C(=O)O)cn1c23 (stereo not shown) [Ofloxacin]
Plate 3 (% conversion) [1]: 41.94%

Cc1cc2c(s1)Nc1ccccc1N=C2N1CCN(C)CC1 [Olanzapine]
% conversion: 42.51%
inhibition at 20 µM: -17.7%

CCCCCCCC/C=C\CCCCCCCC(=O)O [Oleic Acid]
Plate 3 (% conversion): 10.92%

Cn1cnc2c(NCc3ccccc3)nc(NCCO)nc21 [Olomoucine]
Plate 3 (% conversion) [1]: 37.63%

Cc1[nH]c(=O)c(C#N)cc1-c1ccc2nccn2c1.Cl [Olprinone hydrochloride]
% conversion [4]: 31.06%

CCCCCCCC/C=C\CCCCCCCC(=O)NCc1ccc(O)c(OC)c1 [Olvanil]
Plate 3 (% conversion): 40.29%

OCCN1CCN(CCCN2c3ccccc3C=Cc3ccccc32)CC1 [Opipramol dihydrochloride]
Plate 1 (% inhibition) [2]: -12.26%
Plate 1 (% conversion) [3]: 39.99%

CN(CC[C@@H](Oc1ccc(C(F)(F)F)cc1)c1ccccc1)CC(=O)[O-].[Li+] [Org 24598 lithium salt]
Plate 1 (% conversion): 40.79%
Plate 1 (% inhibition): -14.64%

O=C(O)/C=C/C(=O)O.O=C(O)/C=C/C(=O)O.O=C(O)/C=C/C(=O)O.O=C1CCCN1CC#CCN1CCCC1.O=C1CCCN1CC#CCN1CCCC1 [Oxotremorine sesquifumarate salt]
Plate 3 (% conversion): 14.90%

CCN(CC)CC#CCOC(=O)C(O)(c1ccccc1)C1CCCCC1 (stereo not shown) [Oxybutynin Chloride]
Plate 3 (% conversion) [1]: 40.48%

Cc1cc(C(C)(C)C)c(O)c(C)c1CC1=NCCN1 [Oxymetazoline hydrochloride]
Plate 3 (% conversion) [1]: 41.41%

C=CCc1cccc(/C=N/NC(=O)CN2CCN(Cc3ccccc3)CC2)c1O [PAC-1, reference compound]
IC50 (50 nM His6-AspH315–758, 1.0 μM hFX-CP101–119, 3 μM 2OG, 2 μM Fe(II), 50 mM HEPES pH 7.5, 20 °C, mean ± SD, n = 2 (2,4-PDCA n = 10), read-out: IC50): 3.53 ± 0.71 µM
Inhibition at 20 µM [%] (AspH activity, fixed compound concentration 20 μM, initial LOPAC screen, 0.5%v/v DMSO): 96.1%
% conversion [4]: 3.66%

Nc1ccc(CCN2CCN(c3cccc(C(F)(F)F)c3)CC2)cc1 [PAPP]
% conversion: 42.06%
% inhibition (20 µM): -16.38%

Cn1c(=O)c(-c2c(Cl)cccc2Cl)cc2cnc(Nc3ccc(N4CCOCC4)cc3)nc21 [PD173952]
% inhibition [5]: -8.20%
% conversion [4]: 39.27%
Plate 5 (% inhibition): 58.03%
Plate 5 (% conversion): 16.57%

O=C(NOCC1CC1)c1ccc(F)c(F)c1Nc1ccc(I)cc1Cl [PD184352]
Plate 5 (% inhibition): 28.96%
Plate 5 (% conversion): 26.46%

COc1cccc(-c2cc(=O)c3ccccc3o2)c1N [PD 98,059]
% conversion: 28.37%

Cc1cccc(C(=O)NCN2CCN(c3ccccc3C#N)CC2)c1.O=C(O)/C=C\C(=O)O [PD 168,077 maleate]
% inhibition [5]: 1.73%
% conversion [4]: 35.88%

CCOC(=O)[C@H](CC(C)C)NC(=O)[C@@H](NC(=O)[C@H](Cc1c[nH]c2ccccc12)NC(=O)[C@@H]1CCCN1C(=O)[C@H](CCCCN)NC[C@@H](N)CCCCN)C(C)(C)C [PD-149163] (H-[X1]PW[Tle]L-OEt)
Plate 5 (% inhibition): -16.72%
Plate 5 (% conversion): 42.01%

COc1ccc(C2(O)OC(=O)C(c3ccc4c(c3)OCO4)=C2Cc2cc(OC)c(OC)c(OC)c2)cc1 (stereo not shown) [PD-156707]
% conversion [4]: 36.15%
inhibition at 20 µM (LOPAC Plate 4, compound at 20 uM, read-out: % inhibition): 0.95%
Plate 5 (% inhibition): 18.88%
Plate 5 (% conversion): 29.89%

CCN(CC)CCCCNc1ncc2cc(-c3c(Cl)cccc3Cl)c(NC(=O)NC(C)(C)C)nc2n1 [PD-161570]
Plate 3 (% conversion) [1]: 41.21%
Plate 5 (% inhibition): -29.14%
Plate 5 (% conversion): 46.23%

Cc1c([N+](=O)[O-])cc2[nH]c(=O)c(=O)[nH]c2c1CN1CCCC1 [PD-161989]
Plate 5 (% inhibition): 16.45%
Plate 5 (% conversion): 30.72%

CCN(CC)CCOc1ccc(Nc2ncc3cc(-c4c(Cl)cccc4Cl)c(=O)n(C)c3n2)cc1.O [PD-166285 hydrate]
% conversion: 50.97%
% inhibition (20 µM): -42.48%

CCN(CC)CCOc1ccc(Nc2ncc3cc(-c4c(Cl)cccc4Cl)c(=O)n(C)c3n2)cc1 [PD-166285]
Plate 5 (% inhibition): -31.63%
Plate 5 (% conversion): 47.08%

COc1cc(OC)cc(-c2cc3cnc(N)nc3nc2NC(=O)NC(C)(C)C)c1 [PD-166866]
% conversion [4]: 36.54%
Plate 5 (% inhibition): -5.94%
Plate 5 (% conversion): 38.34%

Cc1cc(Nc2ncc3cc(-c4c(Cl)cccc4Cl)c(=O)n(C)c3n2)ccc1F [PD-180970]
Plate 1 (% inhibition) [2]: -5.67%
Plate 1 (% conversion) [3]: 37.77%
Plate 5 (% inhibition): 46.58%
Plate 5 (% conversion): 20.46%

O=C(Nc1cccnc1)N1CCC(Cc2cccc(Oc3ccc(C(F)(F)F)cn3)c2)CC1 [PF 3845 hydrate]
Plate 1 (% conversion): 45.36%
Plate 1 (% inhibition): -28.26%

O=C(Nc1cccnc1)N1CCC(Cc2cccc(Oc3ccc(C(F)(F)F)cn3)c2)CC1 [PF-3845]
Plate 5 (% inhibition): -5.26%
Plate 5 (% conversion): 38.10%

CN(c1ccccc1CNc1nc(Nc2ccc3c(c2)CC(=O)N3)ncc1C(F)(F)F)S(C)(=O)=O.O [PF-431396 hydrate]
Plate 1 (% inhibition) [2]: -15.66%
Plate 1 (% conversion) [3]: 41.13%

CN(c1ccccc1CNc1nc(Nc2ccc3c(c2)CC(=O)N3)ncc1C(F)(F)F)S(C)(=O)=O [PF-431396]
Plate 5 (% inhibition): 35.16%
Plate 5 (% conversion): 24.35%

Cn1cc(-c2[nH]c3cc(NC(=O)[C@H](N)C4CCCCC4)cc4c3c2C=NNC4=O)cn1 [PF-477736]
Plate 5 (% inhibition): -92.31%
Plate 5 (% conversion): 67.73%

CS(=O)(=O)c1cccc(CNc2nc(Nc3ccc4c(c3)CCC(=O)N4)ncc2C(F)(F)F)c1 [PF-573228]
Plate 5 (% inhibition): 7.79%
Plate 5 (% conversion): 33.66%

C[C@@H]1CCN(C(=O)N2CCCC2)C[C@@H]1N(C)c1ncnc2[nH]ccc12 [PF-956980]
Plate 5 (% inhibition): 16.28%
Plate 5 (% conversion): 30.77%

N#Cc1ccc([C@H]2CCCC[C@H]2O)cc1C(F)(F)F [PF-998425]
Plate 5 (% conversion): 24.94%

CCc1cncnc1N1CCN(Cc2nc3ccc(C(F)(F)F)cc3[nH]2)CC1 [PF-4708671]
% conversion [4]: 41.30%
Plate 5 (% inhibition): 2.08%
Plate 5 (% conversion): 35.61%

Cl.O=C1NCCc2[nH]c(-c3ccncc3)cc21 [PHA 767491 hydrochloride]
Plate 1 (% inhibition) [2]: -17.71%
Plate 1 (% conversion) [3]: 41.82%

O=C1NCCc2[nH]c(-c3ccncc3)cc21 [PHA 767491]
Plate 5 (% inhibition): 26.12%
Plate 5 (% conversion): 27.42%

O=C(N[C@H]1CN2CCC1CC2)c1cc2ccoc2cn1 [PHA-543613]
Plate 3 (% conversion) [1]: 37.15%
Plate 5 (% inhibition): 12.80%
Plate 5 (% conversion): 31.96%

Cc1[nH]c(/C=C2\C(=O)Nc3ccc(S(=O)(=O)Cc4c(Cl)cccc4Cl)cc32)c(C)c1C(=O)N1CCC[C@@H]1CN1CCCC1 [PHA-665752]
Plate 5 (% inhibition): -100.36%
Plate 5 (% conversion): 70.47%

CCC(C)N(C)C(=O)c1cc2ccccc2c(-c2ccccc2Cl)n1 (stereo not shown) [PK 11195]
Plate 1 (% inhibition) [2]: -10.48%
Plate 1 (% conversion) [3]: 39.39%

Nc1nc2c(ncn2CCOCP(=O)(O)O)c(=O)[nH]1 [PMEG hydrate]
Plate 3 (% conversion) [1]: 30.37%

Cc1nc(N=Nc2ccc(S(=O)(=O)O)cc2S(=O)(=O)O)c(COP(=O)(O)O)c(C=O)c1O [PPADS]
% inhibition [5]: 84.93%
% conversion [4]: 7.48%

O=C(OCCN1CCOCC1)C1(c2ccccc2)CCCCC1 [PRE-084]
Plate 3 (% conversion) [1]: 38.46%

CC(=O)c1cccc(N[C@H]2[C@H](N)[C@@](NC(=O)N(C)C)([C@H](C)O)[C@@](C)(O)[C@@]2(O)COC(=O)c2c(C)cccc2O)c1 [Pactamycin]
Plate 5 (% inhibition): 21.27%
Plate 5 (% conversion): 29.07%

CC(=O)O[C@H]1C[C@@H]2CC[C@@H]3[C@H](CC[C@@]4(C)[C@H]3C[C@H]([N+]3(C)CCCCC3)[C@@H]4OC(C)=O)[C@@]2(C)C[C@@H]1[N+]1(C)CCCCC1 [Pancuronium bromide]
Plate 3 (% conversion): 37.93%

C#CCN(C)Cc1ccccc1 [Pargyline hydrochloride]
% conversion [4]: 31.34%
